This is an account of results in PubChem BioAssay AID296 (DTP/NCI, 2004).

The experiment relates to MX-1 breast xenograft, nude mice, tumor weight T/C. Put plainly: NCI In Vivo Anticancer Drug Screen. Data for tumor model Human Mammary Carcinoma MX-1 Xenograft (intrarenal inoculation) in NU/NU Swiss (nude) mice. To be noted: endpoint: mean tumor weight change, higher = larger tumour. The method, then: The antitumor activity of compounds was measured in mice bearing transplantable tumors. Survival or tumor size were measured and the results are expressed as the measurement made in the treated group (T) divided by the measurement made in the vehicle treated control group (C). The tumor model used in this assay is Human Mammary Carcinoma MX-1 Xenograft (intrarenal inoculation) in NU/NU Swiss (nude) mice
Background: A xenograft is tissue or cells of one species grown in another, often human tumour cells in immunodeficient mice.

[1] abbreviates: dose: 50.0 mg/kg/injection, schedule: Q01DX010 (sc), vehicle: Klucel (hydroxypropylcellulose) (HPC).
[2] abbreviates: dose: 100.0 mg/kg/injection, schedule: Q01DX010 (sc), vehicle: Klucel (hydroxypropylcellulose) (HPC).
[3] abbreviates: dose: 300.0 mg/kg/injection, schedule: Q04DX003 (sc), vehicle: saline with Tween-80.
The mark [4] stands for this setting: dose: 600.0 mg/kg/injection, schedule: Q04DX003 (sc), vehicle: saline with Tween-80.
Where [5] appears, read: dose: 1200.0 mg/kg/injection, schedule: Q04DX003 (sc), vehicle: saline with Tween-80.
The mark [6] stands for this setting: dose: 200.0 mg/kg/injection, schedule: Q04DX003 (sc), vehicle: suspension in saline.
[7] abbreviates: dose: 400.0 mg/kg/injection, schedule: Q04DX003 (sc), vehicle: suspension in saline.

Values joined by “and” are separate entries in the source; they are usually repeats but may differ in a detail not shown here. Equal values may be shown once. Records with an inconclusive call do not appear.

`O=C([CH-]C(=O)C(F)(F)F)c1ccccc1.O=C([CH-]C(=O)C(F)(F)F)c1ccccc1.O=C([CH-]C(=O)C(F)(F)F)c1ccccc1.O=C([CH-]C(=O)C(F)(F)F)c1ccccc1.[Eu+3].c1ccncc1`: the T/C reads like this: under setting [1], 197 % of control; under setting [2], 174 % of control; (dose: 200.0 mg/kg/injection, schedule: Q01DX010 (sc), vehicle: Klucel (hydroxypropylcellulose) (HPC)) 97 % of control; (dose: 400.0 mg/kg/injection, schedule: Q01DX010 (sc), vehicle: Klucel (hydroxypropylcellulose) (HPC)) 178 % of control.
For `C=C(C)C(=O)OC1C/C(CO)=C\C(O)C/C(C)=C/C2OC(=O)C(=C)C21` (stereo not given), the T/C (dose: 20.0 mg/kg/injection, schedule: Q04DX003 (sc), vehicle: saline + alcohol) is 55 % of control; the T/C (dose: 40.0 mg/kg/injection, schedule: Q04DX003 (sc), vehicle: saline + alcohol) was 106 % of control; the T/C (dose: 80.0 mg/kg/injection, schedule: Q04DX003 (sc), vehicle: saline + alcohol) is 66 % of control.
For `O=C1C=CC(=O)N1c1ccc(Cl)cc1`, the T/C runs as follows: (dose: 37.5 mg/kg/injection, schedule: Q04DX003 (sc), vehicle: Klucel (hydroxypropylcellulose) (HPC)) 79 % of control; (dose: 75.0 mg/kg/injection, schedule: Q04DX003 (sc), vehicle: Klucel (hydroxypropylcellulose) (HPC)) 91 % of control; (dose: 150.0 mg/kg/injection, schedule: Q04DX003 (sc), vehicle: Klucel (hydroxypropylcellulose) (HPC)) 85 % of control.
On to `NC(=S)N/N=C/c1ccc(OC(=O)COc2ccc(Cl)cc2)cn1`, for which the T/C by setting is: under setting [3], 112 % of control; under setting [4], 88 % of control; under setting [5], 92 % of control.
`NCCCC(N)(C(=O)O)C(F)F` (stereo not given): the T/C by setting is: (dose: 300.0 mg/kg/injection, schedule: Q04DX003 (sc), vehicle: distilled water + alcohol) 110 % of control; (dose: 600.0 mg/kg/injection, schedule: Q04DX003 (sc), vehicle: distilled water + alcohol) 83 % of control; (dose: 1200.0 mg/kg/injection, schedule: Q04DX003 (sc), vehicle: distilled water + alcohol) 73 % of control; (dose: 2400.0 mg/kg/injection, schedule: Q04DX003 (sc), vehicle: distilled water + alcohol) 112 % of control.
Regarding `c1ccc2c(c1)nnn1c3cnccc3nc21`, the T/C runs as follows: (dose: 12.5 mg/kg/injection, schedule: Q01DX010 (sc), vehicle: saline with Tween-80) 36 % of control; (dose: 25.0 mg/kg/injection, schedule: Q01DX010 (sc), vehicle: saline with Tween-80) 86 % of control; (dose: 50.0 mg/kg/injection, schedule: Q01DX010 (sc), vehicle: saline with Tween-80) 63 % of control.
With `Nc1nc(=S)c2ncn(C3CC(O)C(CO)O3)c2[nH]1` (stereo not given), the T/C by setting is: (dose: 0.94 mg/kg/injection, schedule: Q04DX003 (sc), vehicle: saline with Tween-80) 97 % of control; (dose: 1.88 mg/kg/injection, schedule: Q04DX003 (sc), vehicle: saline with Tween-80) 81 % of control; (dose: 3.75 mg/kg/injection, schedule: Q04DX003 (sc), vehicle: saline with Tween-80) 97 % of control; (dose: 7.5 mg/kg/injection, schedule: Q04DX003 (sc), vehicle: saline with Tween-80) 87 % of control; under setting [1], 64 % of control; under setting [2], 122 % of control.
As to `NC(=O)c1ncn(C2OC(CO)C(O)C2O)c1O` (stereo not given), the T/C runs as follows: (dose: 300.0 mg/kg/injection, schedule: Q04DX003 (sc), vehicle: Klucel (hydroxypropylcellulose) (HPC)) 73 % of control; (dose: 600.0 mg/kg/injection, schedule: Q04DX003 (sc), vehicle: Klucel (hydroxypropylcellulose) (HPC)) 95 % of control; (dose: 1200.0 mg/kg/injection, schedule: Q04DX003 (sc), vehicle: Klucel (hydroxypropylcellulose) (HPC)) 98 % of control.
As for `CN(C)CCN1C(=O)c2cccc3cc([N+](=O)[O-])cc(c23)C1=O`, the T/C is 52 % of control (dose: 9.0 mg/kg/injection, schedule: Q04DX003 (sc), vehicle: saline with Tween-80); 43 % of control (dose: 18.0 mg/kg/injection, schedule: Q04DX003 (sc), vehicle: saline with Tween-80); 55 % of control (dose: 36.0 mg/kg/injection, schedule: Q04DX003 (sc), vehicle: saline with Tween-80).
Take `CC(C)[NH-].CC(C)[NH-].O.O.[Cl][Pt+2][Cl]`: the T/C is, setting by setting: (dose: 3.12 mg/kg/injection, schedule: Q01DX010 (sc), vehicle: dextrose) 80 % of control and 97 % of control; (dose: 6.25 mg/kg/injection, schedule: Q01DX010 (sc), vehicle: dextrose) 7 % of control and 22 % of control; (dose: 25.0 mg/kg/injection, schedule: Q01DX010 (sc), vehicle: dextrose) -89 % of control.
With `CN(C)N=Nc1cn[nH]c1C(N)=O`, the T/C reads like this: (dose: 100.0 mg/kg/injection, schedule: Q04DX003 (sc), vehicle: suspension in saline) 98 % of control; (dose: 200.0 mg/kg/injection, schedule: Q04DX003 (sc), vehicle: saline) 63 % of control; under setting [6], 67 % of control; (dose: 400.0 mg/kg/injection, schedule: Q04DX003 (sc), vehicle: saline) 49 % of control; under setting [7], 31 % of control and 37 % of control; (dose: 800.0 mg/kg/injection, schedule: Q04DX003 (sc), vehicle: saline) 13 % of control. The T/C (dose: 800.0 mg/kg/injection, schedule: Q04DX003 (sc), vehicle: suspension in saline) was 2 % of control and 7 % of control.
Take `O=C(O)C1CC(O)CN1` (stereo not given): the T/C is, setting by setting: (dose: 150.0 mg/kg/injection, schedule: Q04DX003 (sc), vehicle: saline) 67 % of control; (dose: 300.0 mg/kg/injection, schedule: Q04DX003 (sc), vehicle: saline) 120 % of control; (dose: 600.0 mg/kg/injection, schedule: Q04DX003 (sc), vehicle: saline) 91 % of control; (dose: 1200.0 mg/kg/injection, schedule: Q04DX003 (sc), vehicle: saline) 106 % of control.
For `COC1/C=C/C=C(/C)Cc2cc(O)c(Cl)c(c2)N(C)C(=O)CC(OC(=O)C(C)C)C2(C)OC2C(C)C2CC1(O)NC(=O)O2` (stereo not given), the T/C is, setting by setting: (dose: 1.0 mg/kg/injection, schedule: Q04DX003 (sc), vehicle: saline + alcohol) 95 % of control; (dose: 2.0 mg/kg/injection, schedule: Q04DX003 (sc), vehicle: saline + alcohol) 78 % of control and 87 % of control (2×); (dose: 16.0 mg/kg/injection, schedule: Q04DX003 (sc), vehicle: saline + alcohol) 3 % of control and -8 % of control.
Turning to `O=C(Nc1nncs1)c1cccs1`, the T/C under setting [3] is 98 % of control; the T/C under setting [4] was 177 % of control; the T/C under setting [5] is 115 % of control; the T/C (dose: 2400.0 mg/kg/injection, schedule: Q04DX003 (sc), vehicle: saline with Tween-80) is 65 % of control.
`O=c1[nH]c2c(ccc3cnccc32)c2c1CCC2`: the T/C is 71 % of control (dose: 50.0 mg/kg/injection, schedule: Q04DX003 (sc), vehicle: suspension in saline); 70 % of control under setting [6]; 100 % of control under setting [7].
With `NCc1cc(O)c(O)c(O)c1`, the T/C (dose: 150.0 mg/kg/injection, schedule: Q04DX003 (ip), vehicle: saline) was 115 % of control; the T/C (dose: 300.0 mg/kg/injection, schedule: Q04DX003 (ip), vehicle: saline) was 91 % of control; the T/C (dose: 600.0 mg/kg/injection, schedule: Q04DX003 (ip), vehicle: saline) was 88 % of control.
Consider `COC1C(O)CC(OC2CC(OC3CC(O[C@@H]4C(=O)c5c(cc6cc(OC7CC(OC8CC(O)C(O)C(C)O8)C(O)C(C)O7)c(C)c(O)c6c5O)C[C@H]4[C@H](OC)C(=O)[C@@H](O)[C@@H](C)O)OC(C)C3O)OC(C)C2O)OC1C` (stereo not given in full), for which the T/C reads like this: (dose: 0.18 mg/kg/injection, schedule: Q01DX010 (sc), vehicle: saline) 99 % of control; (dose: 0.37 mg/kg/injection, schedule: Q04DX003 (sc), vehicle: saline) 123 % of control; (dose: 0.75 mg/kg/injection, schedule: Q04DX003 (sc), vehicle: saline) 90 % of control; (dose: 1.5 mg/kg/injection, schedule: Q04DX003 (sc), vehicle: saline) 61 % of control; (dose: 3.0 mg/kg/injection, schedule: Q01DX010 (sc), vehicle: saline) -93 % of control; (dose: 3.0 mg/kg/injection, schedule: Q04DX003 (sc), vehicle: saline) 35 % of control.
